What was measured:
[1] = Cytotoxicity against Vero cells by MTT assay; format: cell-based; conditions: chlorocebus sabaeus
[2] = system: Measles morbillivirus; experiment: Antiviral activity against Measles virus Alaska assessed as inhibition of viral-induced cytopathicity; format: functional, organism-based
[3] = system: Measles morbillivirus; experiment: Antiviral activity against Measles virus Alaska assessed as virus titer reduction; format: functional
[4] = Cytotoxicity against Vero cells by Trypan blue exclusion assay; format: cell-based; conditions: chlorocebus sabaeus
[5] = Ratio of CC50 for Vero cells to IC50 for Measles virus Alaska; format: functional

SMILES | CC50 [1] | EC50 [2] | Activity [3] | CC50 [4] | Ratio CC50/IC50 [5]
O=C(Nc1ccc(S(=O)(=O)N2CCCC2)cc1)c1ccc([N+](=O)[O-])cc1Cl | > 300 µM | > 75 µM | – | – | –
Cn1nc(C(F)(F)F)cc1C(=O)Nc1ccc(S(=O)(=O)N2CCOCC2)cc1 | > 300 µM | 43 µM | – | – | –
O=C(Nc1ccc(S(=O)(=O)N2CCCC2)cc1)c1cccc(C(F)(F)F)c1 | > 300 µM | > 75 µM | – | – | –
Cn1nc(C(F)(F)F)cc1C(=O)Nc1ccc(S(=O)(=O)N2CCCC2)cc1NC(=O)c1cc(C(F)(F)F)nn1C | 13 µM | – | – | – | –
Cn1nc(C(C)(C)C)cc1C(=O)Nc1ccc(S(=O)(=O)N2CCCC2)cc1 | 140 µM | 25 µM | – | – | –
Nc1ccc(C(=O)Nc2ccc(S(=O)(=O)N3CCCC3)cc2)c(Cl)c1 | > 300 µM | > 75 µM | – | – | –
O=C(Nc1ccc(S(=O)(=O)N2CCCC2)cc1)c1ccccc1C(F)(F)F | > 300 µM | > 75 µM | – | – | –
O=C(Nc1ccc(S(=O)(=O)N2CCCC2)cc1)c1ccc(Br)cc1 | 59 µM | – | – | – | –
O=C(Nc1ccc(S(=O)(=O)N2CCCC2)cc1)c1ccc(C(F)(F)F)cc1 | > 300 µM | 48 µM | – | – | –
Cc1cc(C(=O)Nc2ccc(S(=O)(=O)N3CCCC3)cc2)n(C)n1 | > 300 µM | > 75 µM | – | – | –
O=C(Nc1ccc(S(=O)(=O)N2CCCC2)cc1)c1ccco1 | > 300 µM | > 75 µM | – | – | –
Cn1nc(C(F)(F)F)cc1C(=O)Nc1ccc(S(=O)(=O)n2ccc3ccccc32)cc1 | 13 µM | – | – | – | –
Cn1nc(C(F)(F)F)cc1C(=O)Nc1ccc(S(=O)(=O)N2CCCCC2)cc1 | > 300 µM | < 2.3 µM | 0.012 µM | 199 µM | 16500
O=C(Nc1ccc(S(=O)(=O)N2CCCC2)cc1)c1cc(C(F)(F)F)nn1Cc1ccccc1 | 37 µM | > 75 µM | – | – | –
Cn1nc(C(F)(F)F)cc1C(=O)Nc1ccc(S(=O)(=O)N2CCCCC2C(=O)O)cc1 (stereo unspecified) | > 300 µM | > 75 µM | – | – | –
Cn1nc(C(F)(F)F)cc1COc1ccc(S(=O)(=O)N2CCCC2)cc1 | > 300 µM | > 75 µM | – | – | –
O=C(Nc1ccc(S(=O)(=O)N2CCCC2)cc1)c1ccc(F)cc1 | > 300 µM | > 75 µM | – | – | –

SMILES | CC50 [1] | EC50 [2] | Activity [3] | CC50 [4] | Ratio CC50/IC50 [5]
Cn1nc(C(F)(F)F)cc1C(O)Cc1ccc(S(=O)(=O)N2CCCC2)cc1 (stereo unspecified) | > 300 µM | 41 µM | – | – | –
Cn1nc(C(F)(F)F)cc1C(=O)Nc1ccc(S(=O)(=O)N2CCCC2)cc1OC(=O)c1cc(C(F)(F)F)nn1C | 14 µM | – | – | – | –
O=C(Nc1ccc(S(=O)(=O)N2CCCC2)cc1)c1ccc(C(F)(F)F)cc1[N+](=O)[O-] | > 300 µM | > 75 µM | – | – | –
Cn1nc(C(F)(F)F)cc1C(=O)Nc1ccc(S(=O)(=O)N2CCC[C@H]2C(=O)O)cc1 | > 300 µM | 23 µM | – | – | –
Cn1nc(C(F)(F)F)cc1C(=O)Nc1ccc(S(=O)(=O)N2CCCC2)cc1O | 288 µM | > 75 µM | – | – | –
O=C(Nc1ccc(S(=O)(=O)N2CCCC2)cc1)c1nc2ccccc2s1 | > 300 µM | > 75 µM | – | – | –
O=C(Nc1ccc(S(=O)(=O)N2CCCC2)cc1)c1ccc(CCl)cc1 | 11 µM | – | – | – | –
Cn1nc(C(F)(F)F)cc1C(=O)Nc1ccc(S(=O)(=O)N2CCNCC2)cc1 | 126 µM | 28 µM | – | – | –
Cn1nc(C(F)(F)F)cc1C(=O)Nc1ccc(S(=O)(=O)N2CCCC2)cc1N | > 300 µM | ≥ 75 µM | – | – | –
Cc1nc(C(F)(F)F)ccc1C(=O)Nc1ccc(S(=O)(=O)N2CCCC2)cc1 | > 300 µM | > 75 µM | – | – | –
O=C(Nc1ccc(S(=O)(=O)N2CCCC2)cc1)c1cc(C(F)(F)F)ccc1F | 76 µM | ≥ 75 µM | – | – | –
Cn1nc(C(F)(F)F)cc1CNc1ccc(S(=O)(=O)N2CCCC2)cc1 | > 300 µM | > 75 µM | – | – | –
COc1ccc(Br)c(C(=O)Nc2ccc(S(=O)(=O)N3CCCC3)cc2)c1 | > 300 µM | > 75 µM | – | – | –
Cn1nc(C(F)(F)F)cc1C(=O)Cc1ccc(S(=O)(=O)N2CCCC2)cc1 | > 300 µM | 15.5 µM | – | – | –
O=C(Nc1ccc(S(=O)(=O)N2CCCC2)cc1)c1nccn1-c1ccccc1C(F)(F)F | > 300 µM | 65 µM | – | – | –
Cn1nc(C(F)(F)F)cc1C(=O)Nc1ccc(S(=O)(=O)N2CCC[C@H]2C(=O)OCc2ccccc2)cc1 | 100 µM | 14 µM | – | – | –
O=C(Nc1ccc(S(=O)(=O)N2CCCC2)cc1)c1cccs1 | > 300 µM | > 75 µM | – | – | –

From ChEMBL document CHEMBL1139770, “Non-nucleoside inhibitors of the measles virus RNA-dependent RNA polymerase complex activity: Synthesis and in vitro evaluation” (Bioorg Med Chem Lett, 2007)
